Experimental findings from ChEMBL document CHEMBL1208702, “Use of 2-[(18)F]fluoroethylazide for the Staudinger ligation - Preparation and characterisation of GABA(A) receptor binding 4-quinolones” (Bioorg Med Chem Lett, 2010) are described below.

The nature of the assay: Displacement of [3H]Ro151788 from GABA-A receptor in Wistar rat cerebellar membrane after 1 hr by liquid scintillation counting. The assay is classed as cell membranes, Cerebellum.

`O=C(NCCCF)c1c[nH]c2ccc(Br)cc2c1=O` gave an inhibition constant (Ki) of 1.3 nM.
